Experiments:
Assay in all cases: NCI60 antitumor screening
Assay type in all cases: cell-based, human
CCRF-CEM = system: CCRF-CEM
K-562 = system: K-562
MOLT-4 = system: MOLT-4
RPMI-8226 = system: RPMI-8226
HOP-62 = system: HOP-62
HOP-92 = system: HOP-92
NCI-H23 = system: NCI-H23
NCI-H322M = system: NCI-H322M
NCI-H460 = system: NCI-H460
NCI-H522 = system: NCI-H522
COLO 205 = system: COLO 205
HCC-2998 = system: HCC-2998
HCT-116 = system: HCT-116
SF-268 = system: SF-268
SF-539 = system: SF-539
SNB-19 = details: Homo sapiens
[1] = Homo sapiens, NCI-H322M, five-dose
[2] = Homo sapiens, SF-539, five-dose

With N#Cc1c(-c2ccc(F)cc2)nc(SCc2ccc(F)cc2)nc1N1CCNCC1 [4f, 2-((4-Fluorobenzyl)thio)-4-(4-fluorophenyl)-6-(piperazin-1-yl) pyrimidine-5-carbonitrile] the GI% (CCRF-CEM; 10 μM one-dose) was 95.51%, the GI50 (CCRF-CEM; Homo sapiens, CCRF-CEM, five-dose) was 14.9 µM and the CC50 (CCRF-CEM; Homo sapiens, CCRF-CEM, five-dose, read-out: LC50 (the source's name)) was 76 µM. For the same molecule, the inhibition at 10 µM (CCRF-CEM; Homo sapiens, 10 μM single dose, CCRF-CEM (leukaemia), read-out: growth inhibition percent (GI%)) was 95.5%, the TGI (CCRF-CEM; five-dose) was 33.60 µM and the GI% (K-562; 10 μM one-dose) was 99.28%. It also gave a GI50 (K-562; Homo sapiens, K562, five-dose) of 3.76 µM, a CC50 (K-562; Homo sapiens, K562, five-dose, read-out: LC50 (the source's name)) of over 100 µM and an inhibition at 10 µM (K-562; Homo sapiens, 10 μM single dose, (leukaemia), read-out: growth inhibition percent (GI%)) of 99.3%. The TGI (K-562; five-dose) was 17.80 µM, the GI% (MOLT-4; 10 μM one-dose) was 92.21% and the GI50 (MOLT-4; Homo sapiens, MOLT-4, five-dose) was 10.5 µM. The CC50 (MOLT-4; Homo sapiens, MOLT-4, five-dose, read-out: LC50 (the source's name)) was 64.4 µM, the inhibition at 10 µM (MOLT-4; Homo sapiens, 10 μM single dose, MOLT-4 (leukaemia), read-out: growth inhibition percent (GI%)) was 92.2% and the TGI (MOLT-4; five-dose) was 26.00 µM. The GI50 (RPMI-8226; Homo sapiens, RPMI-8226, five-dose) was 6.75 µM, the CC50 (RPMI-8226; Homo sapiens, RPMI-8226, five-dose, read-out: LC50 (the source's name)) was 74.4 µM and the inhibition at 10 µM (RPMI-8226; Homo sapiens, 10 μM single dose, RPMI-8226 (leukaemia), read-out: growth inhibition percent (GI%)) was over 100%. It also gave a TGI (RPMI-8226; five-dose) of 24.60 µM, a GI50 (HOP-62; Homo sapiens, HOP-62, five-dose) of 17 µM and a CC50 (HOP-62; Homo sapiens, HOP-62, five-dose, read-out: LC50 (the source's name)) of 65.8 µM. The inhibition at 10 µM (HOP-62; Homo sapiens, 10 μM single dose, HOP-62 (non-small cell lung cancer), read-out: growth inhibition percent (GI%)) was over 100%, the TGI (HOP-62; five-dose) was 33.40 µM and the GI50 (HOP-92; Homo sapiens, HOP-92, five-dose) was 7.64 µM. For the same molecule, the CC50 (HOP-92; Homo sapiens, HOP-92, five-dose, read-out: LC50 (the source's name)) was 53.4 µM, the inhibition at 10 µM (HOP-92; Homo sapiens, 10 μM single dose, HOP-92 (non-small cell lung cancer), read-out: growth inhibition percent (GI%)) was over 100% and the TGI (HOP-92; five-dose) was 22.10 µM. For the same molecule, the GI50 (NCI-H23; Homo sapiens, NCI-H23, five-dose) was 16 µM, the CC50 (NCI-H23; Homo sapiens, NCI-H23, five-dose, read-out: LC50 (the source's name)) was 57.5 µM and the inhibition at 10 µM (NCI-H23; Homo sapiens, 10 μM single dose, NCI-H23 (non-small cell lung cancer), read-out: growth inhibition percent (GI%)) was over 100%. The TGI (NCI-H23; five-dose) was 30.40 µM, the GI50 (NCI-H322M; [1]) was 14 µM and the LC50 (50% lethal concentration) (NCI-H322M; [1]) was 52.8 µM. The inhibition at 10 µM (NCI-H322M; Homo sapiens, 10 μM single dose, NCI-H322M (non-small cell lung cancer), read-out: growth inhibition percent (GI%)) was 64%, the TGI (NCI-H322M; five-dose) was 27.20 µM and the GI50 (NCI-H460; Homo sapiens, NCI-H460, five-dose) was 14.3 µM. The CC50 (NCI-H460; Homo sapiens, NCI-H460, five-dose, read-out: LC50 (the source's name)) was 60.4 µM, the inhibition at 10 µM (NCI-H460; Homo sapiens, 10 μM single dose, NCI-H460 (non-small cell lung cancer), read-out: growth inhibition percent (GI%)) was over 100% and the TGI (NCI-H460; five-dose) was 29.40 µM. The GI50 (NCI-H522; Homo sapiens, NCI-H522, five-dose) was 13.9 µM, the CC50 (NCI-H522; Homo sapiens, NCI-H522, five-dose, read-out: LC50 (the source's name)) was 64.3 µM and the inhibition at 10 µM (NCI-H522; Homo sapiens, 10 μM single dose, NCI-H522 (non-small cell lung cancer), read-out: growth inhibition percent (GI%)) was over 100%. The TGI (NCI-H522; five-dose) was 29.90 µM, the IC50 (COLO 205; Homo sapiens, COLO 205) was 1.83 µM and the GI50 (COLO 205; Homo sapiens, COLO 205, five-dose) was 1.83 µM. For the same molecule, the CC50 (COLO 205; Homo sapiens, COLO 205, five-dose, read-out: LC50 (the source's name)) was 6.34 µM, the inhibition at 10 µM (COLO 205; Homo sapiens, 10 μM single dose, COLO 205 (colon cancer), read-out: growth inhibition percent (GI%)) was over 100% and the TGI (COLO 205; five-dose) was 3.40 µM. For the same molecule, the GI50 (HCC-2998; Homo sapiens, HCC 2998, five-dose) was 2.53 µM, the CC50 (HCC-2998; Homo sapiens, HCC 2998, five-dose, read-out: LC50 (the source's name)) was 6.27 µM and the inhibition at 10 µM (HCC-2998; Homo sapiens, 10 μM single dose, HCC-2998 (colon cancer), read-out: growth inhibition percent (GI%)) was over 100%. It also gave a TGI (HCC-2998; five-dose) of 3.22 µM, a GI50 (HCT-116; Homo sapiens, HCT-116, five-dose) of 4.15 µM and a CC50 (HCT-116; Homo sapiens, HCT-116, five-dose, read-out: LC50 (the source's name)) of 42.8 µM. It also gave an inhibition at 10 µM (HCT-116; Homo sapiens, 10 μM single dose, HCT-116 (colon cancer), read-out: growth inhibition percent (GI%)) of over 100%, a TGI (HCT-116; five-dose) of 15.60 µM and a GI50 (SF-268; Homo sapiens, SF-268, five-dose) of 14.1 µM. It also gave a CC50 (SF-268; Homo sapiens, SF-268, five-dose, read-out: LC50 (the source's name)) of 67.5 µM, an inhibition at 10 µM (SF-268; Homo sapiens, 10 μM single dose, SF-268 (CNS cancer), read-out: growth inhibition percent (GI%)) of 58.5% and a TGI (SF-268; five-dose) of 30.90 µM. The GI50 (SF-539; [2]) was 15.6 µM, the LC50 (SF-539; [2]) was 54.1 µM and the inhibition at 10 µM (SF-539; Homo sapiens, 10 μM single dose, SF-539 (CNS cancer), read-out: growth inhibition percent (GI%)) was over 100%. It also gave a TGI (SF-539; five-dose) of 29.00 µM, a GI50 (SNB-19; SNB-19, five-dose) of 14.9 µM and a CC50 (SNB-19; SNB-19, five-dose, read-out: LC50 (the source's name)) of 58.1 µM. It also gave an inhibition at 10 µM (SNB-19; 10 μM single dose, SNB-19 (CNS cancer), read-out: growth inhibition percent (GI%)) of 50.4%.
